This note sets out measurements from ChEMBL document CHEMBL2046376, “Synthesis and antimicrobial activity of amide derivatives of polyether antibiotic-salinomycin” (2012).

SMILES strings stand for the structures. Values after ≈ are worked out from the molar mass of the structure shown.

Common to all, as to assay type: functional
In assay [1] the test system is Staphylococcus aureus. In words: Antibacterial activity against hospital-acquired methicillin-sensitive Staphylococcus aureus 446/11 after 18 hrs by twofold serial agar dilution technique. The note with it: 446/11, 18 h.
For assay [2], the system named is Staphylococcus aureus. In words: Antibacterial activity against hospital-acquired methicillin-resistant Staphylococcus aureus 451/11 after 18 hrs by twofold serial agar dilution technique. The note with it: 451/11, 18 h.
For assay [3], the system named is Staphylococcus aureus. Kind of assay: Antibacterial activity against hospital-acquired methicillin-resistant Staphylococcus aureus 482/11 after 18 hrs by twofold serial agar dilution technique. The following applies: 482/11, 18 h.
Assay [4] deals with Staphylococcus aureus. In words: Antibacterial activity against hospital-acquired methicillin-resistant Staphylococcus aureus 399/10 after 18 hrs by twofold serial agar dilution technique. The following applies: 399/10, 18 h.
Assay [5] concerns Staphylococcus aureus. Kind of assay: Antibacterial activity against hospital-acquired methicillin-sensitive Staphylococcus aureus 441/11 after 18 hrs by twofold serial agar dilution technique. The note with it: 441/11, 18 h.
In assay [6] the test system is Staphylococcus aureus. Kind of assay: Antibacterial activity against hospital-acquired methicillin-resistant Staphylococcus aureus 481/11 after 18 hrs by twofold serial agar dilution technique. The following applies: 481/11, 18 h.
The subject of assay [7] is Staphylococcus aureus. Kind of assay: Antibacterial activity against hospital-acquired methicillin-resistant Staphylococcus aureus 394/10 after 18 hrs by twofold serial agar dilution technique. The following applies: 394/10, 18 h.
Assay [8] concerns Staphylococcus aureus. In words: Antibacterial activity against hospital-acquired methicillin-sensitive Staphylococcus aureus 443/11 after 18 hrs by twofold serial agar dilution technique. The note with it: 443/11, 18 h.
In assay [9] the test system is Staphylococcus aureus. In words: Antibacterial activity against hospital-acquired methicillin-sensitive Staphylococcus aureus 440/11 after 18 hrs by twofold serial agar dilution technique. The following applies: 440/11, 18 h.
For assay [10], the system named is Staphylococcus aureus. Kind of assay: Antibacterial activity against hospital-acquired methicillin-sensitive Staphylococcus aureus 449/11 after 18 hrs by twofold serial agar dilution technique. The note with it: 449/11, 18 h.
Assay [11] deals with Staphylococcus aureus. In words: Antibacterial activity against hospital-acquired methicillin-resistant Staphylococcus aureus 393/10 after 18 hrs by twofold serial agar dilution technique. The following applies: 393/10, 18 h.
Assay [12] concerns Staphylococcus aureus. In words: Antibacterial activity against hospital-acquired methicillin-sensitive Staphylococcus aureus 445/11 after 18 hrs by twofold serial agar dilution technique. The note with it: 445/11, 18 h.
The subject of assay [13] is Staphylococcus aureus. Kind of assay: Antibacterial activity against hospital-acquired methicillin-resistant Staphylococcus aureus 401/10 after 18 hrs by twofold serial agar dilution technique. The note with it: 401/10, 18 h.
Assay [14] relates to Staphylococcus aureus. Kind of assay: Antibacterial activity against hospital-acquired methicillin-sensitive Staphylococcus aureus 442/11 after 18 hrs by twofold serial agar dilution technique. The following applies: 442/11, 18 h.
The subject of assay [15] is Staphylococcus aureus. In words: Antibacterial activity against hospital-acquired methicillin-resistant Staphylococcus aureus 400/10 after 18 hrs by twofold serial agar dilution technique. The note with it: 400/10, 18 h.
Assay [16] deals with Staphylococcus aureus. Kind of assay: Antibacterial activity against hospital-acquired methicillin-resistant Staphylococcus aureus 450/11 after 18 hrs by twofold serial agar dilution technique. The following applies: 450/11, 18 h.
The subject of assay [17] is Staphylococcus aureus. In words: Antibacterial activity against hospital-acquired methicillin-sensitive Staphylococcus aureus 447/11 after 18 hrs by twofold serial agar dilution technique. The following applies: 447/11, 18 h.
In assay [18] the test system is Staphylococcus aureus. Kind of assay: Antibacterial activity against hospital-acquired methicillin-sensitive Staphylococcus aureus 448/11 after 18 hrs by twofold serial agar dilution technique. The following applies: 448/11, 18 h.
Assay [19] has as its system Staphylococcus aureus. In words: Antibacterial activity against hospital-acquired methicillin-sensitive Staphylococcus aureus 444/11 after 18 hrs by twofold serial agar dilution technique. The note with it: 444/11, 18 h.
Assay [20] relates to Staphylococcus aureus. Kind of assay: Antibacterial activity against hospital-acquired methicillin-resistant Staphylococcus aureus 452/11 after 18 hrs by twofold serial agar dilution technique. The following applies: 452/11, 18 h.

Take `CC[C@@]1([C@@H]2O[C@@H]([C@H]3O[C@@](O)(CO)[C@H](C)C[C@@H]3C)C[C@@H]2C)CC[C@H]([C@]2(C)CC[C@]3(C[C@H](O)[C@@H](C)[C@@H]([C@@H](C)[C@@H](OC)[C@H](C)C(=O)O)O3)O2)O1` [MONENSIN]: the MIC against Staphylococcus aureus [1] is 2 µg/mL (≈ 2.98 µM); in the assay on Staphylococcus aureus [2] it was 4 µg/mL (≈ 5.96 µM); in the assay on Staphylococcus aureus [3] it was 2 µg/mL (≈ 2.98 µM); in the assay with Staphylococcus aureus [4], 2 µg/mL (≈ 2.98 µM); in the assay with Staphylococcus aureus [5], 4 µg/mL (≈ 5.96 µM); with Staphylococcus aureus [6], 2 µg/mL (≈ 2.98 µM). Also, the MIC in the assay with Staphylococcus aureus [7] is 4 µg/mL (≈ 5.96 µM); in the assay on Staphylococcus aureus [8], 4 µg/mL (≈ 5.96 µM); in the assay on Staphylococcus aureus [9], 2 µg/mL (≈ 2.98 µM); in the assay with Staphylococcus aureus [10], 2 µg/mL (≈ 2.98 µM); with Staphylococcus aureus [11], 4 µg/mL (≈ 5.96 µM); in the assay with Staphylococcus aureus [12], 2 µg/mL (≈ 2.98 µM). Moreover, the MIC with Staphylococcus aureus [13], against Staphylococcus aureus [14], against Staphylococcus aureus [15], with Staphylococcus aureus [16], in the assay on Staphylococcus aureus [17] and with Staphylococcus aureus [18] was 2 µg/mL (≈ 2.98 µM) in each case. Besides, the MIC in the assay on Staphylococcus aureus [19] was determined as 4 µg/mL (≈ 5.96 µM); against Staphylococcus aureus [20], 2 µg/mL (≈ 2.98 µM).
